# Data: patent US10111865B2 (priority 2015, dated 2018)
# Read-outs that look alike come from different tables or passages of the source.
# What was measured:
# [1] = human, in vivo; for residual effect on Choice Reaction Time / residual effect on Critical Flicker Fusion: po
# [2] = human, in vivo
# [3] = three-month efficacy study, insomnia; cited from earlier work
# [4] = Driving performance (real driving on the road) and cognitive/psychomotor test battery after evening or middle-of-the-night dosing (Example 3); format: in vivo, human; settings: for effect on memory test, body sway, DSST or critical tracking: cognitive and psychomotor test battery before driving test; for effect on driving: driving test at 9 am
# From the text: The study participants included healthy, male and female subjects between 21 and 45 years of age, with a valid drivers license for at least 3 years.
# Following a cognitive and psychomotor test battery, the driving test started at 9 am and lasted for one hour.
# [5] = Daytime performance after 5-hour sleep restriction, 4-night placebo-controlled study in healthy adults (Example 4); format: in vivo, human; settings: 15 mg
# Description: The study included a 2-night single-blind placebo run-in period, a 4-night double-blind treatment period during which sleep was restricted to 5 hours and a 2-night single-blind placebo run-out period. The study included healthy male and female volunteers 18 to <55 years of age.
# 2-night run-in period: All patients received placebo
# 2-night run-out period: All patients received placebo
# The primary endpoints included observations based on the Multiple Sleep Latency Test (MSLT) and Slow Wave Sleep (SWS) assessment.
# [6] = format: in vivo, human
# From the text: There was a washout of 4 days between each treatment period.
# The study included healthy, male and female subjects between 18 and 45 years of age within 30% of ideal weight. The subjects in Part 1 of the study could be of either gender, but within Part 2 of the study there had to be at least 4 subjects of each gender.
# [7] = middle-of-the-night administration (4 am; gaboxadol 15 mg, zolpidem 10 mg)
compound,measurement,setting,value
CCN(CC)CCN1C(=O)CN=C(c2ccccc2F)c2cc(Cl)ccc21 [Flurazepam],residual effect on Choice Reaction Time,[1],showed significant effect
same,residual effect on Critical Flicker Fusion,[1],showed significant effect
"Oc1noc2c1CCNC2 [gaboxadol, 4,5,6,7-tetrahydroisoxazolo [5,4-c]pyridine-3-ol]",Oral clearance (CL/F) compared with clearance after intravenous administration,[2],of similar magnitude
same,"AUC0-inf, dependence on dose",[2]; iv,increased with increasing dose
same,"Cmax, dependence on dose",[2]; iv,increased with increasing dose
same,"other parameters (CL, t1/2, Vss, fe, and CLR), dependence on dose",[2]; iv,independent of dose
same,steady-state volume of distribution (Vss),[2]; iv,moderate
same,systemic clearance (CL),[2]; iv,moderate
same,"other parameters (CL/F, tmax, t1/2, fe, and CLR), dependence on dose",[2]; po,independent of dose
same,"AUC0-inf, dependence on dose","[2]; po, 20 mg",increased with increasing dose
same,"Cmax, dependence on dose","[2]; po, 20 mg",increased with increasing dose
same,effects in sleep onset and sleep maintenance,[3],failed to show significant effects
same,"effect on memory test, body sway, DSST or critical tracking",[4],no effect
same,tolerability,[4]; evening and middle-of-the-night dose 15 mg,well tolerated
same,effect on driving compared with blood alcohol,[4]; evening dose 15 mg,less than the effect observed at a 0.05% blood alcohol concentration
same,most frequent adverse events,[4]; evening treatment 15 mg,headache and somnolence
same,effect on driving,[4]; [7],clinically relevant impairing effect
same,most frequent adverse events,[4]; middle-of-the-night treatment 15 mg,"dizziness, nausea and somnolence"
same,"MSLT, average difference to placebo (longer)","[5]; last two Sleep Restriction days, p=0.047, 1 sided",2.01 min
same,"Karolinska Sleepiness Score (KSS), average difference to placebo (less)","[5]; last two Sleep Restriction days, p=0.058, 1 sided, LDA model",0.68
same,"SWS, average difference to placebo (longer)","[5]; last two Sleep Restriction nights, p<0.001, 1 sided",20.53 min
same,"biophysiological measures of stress (heart rate variability, cortisol levels, catecholamine levels, body temperature) vs placebo",[5]; sleep restriction,no differences
same,neurocognitive battery effect sizes (daytime performance),[5]; sleep restriction,no strong evidence that gaboxadol improves daytime performance
same,serious adverse experiences,[6]; both parts of the study,no serious adverse experiences
same,tolerability,[6]; single dose intravenous 5 and 10 mg,generally well tolerated
same,tolerability,[6]; single dose oral 2.5 to 20 mg,generally well tolerated
same,"residual effects on other measurements (MSLT, DSST, Tracking, Memory tests, Body Sway, Leeds Sleep Evaluation Questionnaire)",[1],did not show any signs of residual effects
same,residual effect on Choice Reaction Time,[1],did not show residual effect
same,residual effect on Critical Flicker Fusion,[1],did not show residual effect
Cc1ccc(-c2nc3ccc(C)cn3c2CC(=O)N(C)C)cc1 [zolpidem],effect on driving,[4]; [7],numerically greater effect
CN1CCN(C(=O)OC2c3nccnc3C(=O)N2c2ccc(Cl)cn2)CC1 (centres unmarked) [zopiclone],"effect on memory test, body sway, DSST or critical tracking",[4],had effect on several of these tests
same,effect on driving,"[4]; evening dose (gaboxadol 15 mg, zopiclone 7.5 mg)",numerically greater effect
